Test results as given in ChEMBL document CHEMBL3885861, “Open TG-GATES”.

Species: Rattus norvegicus
Experiment: Open TG-GATES - Regimen: Daily Repeat
Type: toxicity, organism-based, Sprague-Dawley
Parameters: regimen Daily Repeat, gender Male, age 6 weeks
Settings: in vivo, po, 100 mg/kg, route gavage, dose level Middle; for KIDNEY_L / KIDNEY_R / KIDNEY_TOTAL: tissue Kidney; for ALT / AST / CRE / DBIL / GLC / IP / K / LDH / PL / RALB / TBIL / TC / TG / TP / gamma-GTP: tissue Plasma

Question: Which TERMINAL_BW (72 h, time 3 day) does the source give for `CC(C)OC(=O)C(C)(C)Oc1ccc(C(=O)c2ccc(Cl)cc2)cc1` [FENOFIBRATE] here?
Answer: Its TERMINAL_BW is 219 g.

Question: What about the Bas (72 h, tissue Blood, time 3 day) of the same compound?
Answer: The Bas was 0.2%.

Question: What about the Eos (72 h, tissue Blood, time 3 day) of the same compound?
Answer: Its Eos is 1%.

Question: What about the Fbg (72 h, tissue Blood, time 3 day) of the same compound?
Answer: The Fbg was 242.4 mg/dL.

Question: What about the Ht (72 h, tissue Blood, time 3 day) of the same compound?
Answer: Its Ht is 40.5%.

Question: What about the MCHC (72 h, tissue Blood, time 3 day) of the same compound?
Answer: The MCHC was 32.9%.

Question: And the Mono (72 h, tissue Blood, time 3 day)?
Answer: Its Mono is 3.4%.

Question: What about the Plat (72 h, tissue Blood, time 3 day) of the same compound?
Answer: The Plat was 110.8 x10_4/uL.

Question: And the RBC (72 h, tissue Blood, time 3 day)?
Answer: Its RBC is 619.6 x10_4/ul.

Question: What about the Ret (72 h, tissue Blood, time 3 day) of the same compound?
Answer: Its Ret is 6.7%.

Question: What about the WBC (72 h, tissue Blood, time 3 day) of the same compound?
Answer: Its WBC is 92.3 x10_2/uL.

Question: And the KIDNEY_L (72 h, time 3 day)?
Answer: The KIDNEY_L was 1 g.

Question: And the KIDNEY_R (72 h, time 3 day)?
Answer: The KIDNEY_R was 1 g.

Question: What about the KIDNEY_TOTAL (72 h, time 3 day) of the same compound?
Answer: The KIDNEY_TOTAL was 1.9 g.

Question: And the ALT (72 h, time 3 day)?
Answer: Its ALT is 52 IU/L.

Question: What about the AST (72 h, time 3 day) of the same compound?
Answer: Its AST is 77.6 IU/L.

Question: And the CRE (72 h, time 3 day)?
Answer: Its CRE is 0.2 mg/dL.

Question: What about the DBIL (72 h, time 3 day) of the same compound?
Answer: Its DBIL is 0.012 mg/dL.

Question: And the GLC (72 h, time 3 day)?
Answer: Its GLC is 184.2 mg/dL.

Question: And the IP (72 h, time 3 day)?
Answer: Its IP is 7.5 mg/dL.

Question: And the K (72 h, time 3 day)?
Answer: Its K is 4.1 meq/L.

Question: And the LDH (72 h, time 3 day)?
Answer: Its LDH is 90 IU/L.

Question: What about the PL (72 h, time 3 day) of the same compound?
Answer: Its PL is 118.6 mg/dL.

Question: What about the RALB (72 h, time 3 day) of the same compound?
Answer: Its RALB is 2.6 g/dL.

Question: What about the TBIL (72 h, time 3 day) of the same compound?
Answer: The TBIL was 0.034 mg/dL.

Question: And the TC (72 h, time 3 day)?
Answer: The TC was 58.6 mg/dL.

Question: And the TG (72 h, time 3 day)?
Answer: Its TG is 41.6 mg/dL.

Question: What about the TP (72 h, time 3 day) of the same compound?
Answer: The TP was 5.5 g/dL.

Question: What about the gamma-GTP (72 h, time 3 day) of the same compound?
Answer: Its gamma-GTP is 1.2 IU/L.

Question: What about the TERMINAL_BW ([…], time 7 day) of the same compound?
Answer: The TERMINAL_BW was 251.5 g.

Question: What about the TERMINAL_BW ([…], time 14 day) of the same compound?
Answer: The TERMINAL_BW was 311 g.

Question: What about the TERMINAL_BW ([…], time 28 day) of the same compound?
Answer: Its TERMINAL_BW is 352.5 g.

Question: What about the Bas ([…], tissue Blood, time 7 day) of the same compound?
Answer: The Bas was 0.2%.

Question: What about the Eos ([…], tissue Blood, time 7 day) of the same compound?
Answer: Its Eos is 1%.

Question: And the Fbg ([…], tissue Blood, time 7 day)?
Answer: The Fbg was 232.2 mg/dL.

Question: And the Ht ([…], tissue Blood, time 7 day)?
Answer: The Ht was 40.3%.

Question: What about the MCHC ([…], tissue Blood, time 7 day) of the same compound?
Answer: The MCHC was 32.4%.

Question: What about the Mono ([…], tissue Blood, time 7 day) of the same compound?
Answer: The Mono was 4%.

Question: And the Plat ([…], tissue Blood, time 7 day)?
Answer: The Plat was 127.1 x10_4/uL.

Question: What about the RBC ([…], tissue Blood, time 7 day) of the same compound?
Answer: Its RBC is 650.8 x10_4/ul.

Question: And the Ret ([…], tissue Blood, time 7 day)?
Answer: The Ret was 5.7%.

Question: And the WBC ([…], tissue Blood, time 7 day)?
Answer: Its WBC is 98.5 x10_2/uL.

Question: And the Bas ([…], tissue Blood, time 14 day)?
Answer: Its Bas is 0%.

Question: What about the Eos ([…], tissue Blood, time 14 day) of the same compound?
Answer: Its Eos is 0.8%.

Question: What about the Fbg ([…], tissue Blood, time 14 day) of the same compound?
Answer: The Fbg was 230 mg/dL.

Question: What about the Ht ([…], tissue Blood, time 14 day) of the same compound?
Answer: The Ht was 40.9%.

Question: And the MCHC ([…], tissue Blood, time 14 day)?
Answer: The MCHC was 32.9%.

Question: What about the Mono ([…], tissue Blood, time 14 day) of the same compound?
Answer: The Mono was 3.2%.

Question: And the Plat ([…], tissue Blood, time 14 day)?
Answer: The Plat was 131.7 x10_4/uL.

Question: What about the RBC ([…], tissue Blood, time 14 day) of the same compound?
Answer: Its RBC is 660.8 x10_4/ul.

Question: And the Ret ([…], tissue Blood, time 14 day)?
Answer: The Ret was 5.1%.

Question: What about the WBC ([…], tissue Blood, time 14 day) of the same compound?
Answer: Its WBC is 106.3 x10_2/uL.

Question: What about the Bas ([…], tissue Blood, time 28 day) of the same compound?
Answer: The Bas was 0.8%.

Question: What about the Eos ([…], tissue Blood, time 28 day) of the same compound?
Answer: The Eos was 1.2%.

Question: What about the Fbg ([…], tissue Blood, time 28 day) of the same compound?
Answer: The Fbg was 207.2 mg/dL.

Question: And the Ht ([…], tissue Blood, time 28 day)?
Answer: Its Ht is 44.3%.

Question: What about the MCHC ([…], tissue Blood, time 28 day) of the same compound?
Answer: Its MCHC is 33.6%.

Question: And the MCV ([…], tissue Blood, time 28 day)?
Answer: Its MCV is 56.8 fL.

Question: What about the Mono ([…], tissue Blood, time 28 day) of the same compound?
Answer: The Mono was 3.2%.

Question: What about the Plat ([…], tissue Blood, time 28 day) of the same compound?
Answer: Its Plat is 107.6 x10_4/uL.

Question: And the RBC ([…], tissue Blood, time 28 day)?
Answer: The RBC was 780.8 x10_4/ul.

Question: And the Ret ([…], tissue Blood, time 28 day)?
Answer: The Ret was 2.4%.

Question: What about the WBC ([…], tissue Blood, time 28 day) of the same compound?
Answer: Its WBC is 148.1 x10_2/uL.

Question: And the KIDNEY_L ([…], time 7 day)?
Answer: The KIDNEY_L was 1.1 g.

Question: And the KIDNEY_R ([…], time 7 day)?
Answer: The KIDNEY_R was 1.1 g.

Question: And the KIDNEY_TOTAL ([…], time 7 day)?
Answer: Its KIDNEY_TOTAL is 2.2 g.

Question: And the KIDNEY_L ([…], time 14 day)?
Answer: Its KIDNEY_L is 1.3 g.

Question: And the KIDNEY_R ([…], time 14 day)?
Answer: The KIDNEY_R was 1.3 g.

Question: And the KIDNEY_TOTAL ([…], time 14 day)?
Answer: Its KIDNEY_TOTAL is 2.6 g.

Question: What about the KIDNEY_L ([…], time 28 day) of the same compound?
Answer: The KIDNEY_L was 1.4 g.

Question: What about the KIDNEY_R ([…], time 28 day) of the same compound?
Answer: Its KIDNEY_R is 1.4 g.

Question: And the KIDNEY_TOTAL ([…], time 28 day)?
Answer: The KIDNEY_TOTAL was 2.8 g.

Question: And the ALT ([…], time 7 day)?
Answer: The ALT was 41.2 IU/L.

Question: And the AST ([…], time 7 day)?
Answer: Its AST is 67.8 IU/L.

Question: What about the CRE ([…], time 7 day) of the same compound?
Answer: The CRE was 0.2 mg/dL.

Question: And the DBIL ([…], time 7 day)?
Answer: The DBIL was 0.012 mg/dL.

Question: What about the GLC ([…], time 7 day) of the same compound?
Answer: The GLC was 186.8 mg/dL.

Question: And the IP ([…], time 7 day)?
Answer: The IP was 8 mg/dL.

Question: And the K ([…], time 7 day)?
Answer: Its K is 4.3 meq/L.

Question: And the LDH ([…], time 7 day)?
Answer: The LDH was 126.2 IU/L.

Question: What about the PL ([…], time 7 day) of the same compound?
Answer: Its PL is 119.8 mg/dL.

Question: What about the RALB ([…], time 7 day) of the same compound?
Answer: The RALB was 2.8 g/dL.

Question: What about the TBIL ([…], time 7 day) of the same compound?
Answer: The TBIL was 0.028 mg/dL.

Question: What about the TC ([…], time 7 day) of the same compound?
Answer: Its TC is 55.6 mg/dL.

Question: What about the TG ([…], time 7 day) of the same compound?
Answer: Its TG is 47.4 mg/dL.

Question: What about the TP ([…], time 7 day) of the same compound?
Answer: Its TP is 5.9 g/dL.

Question: And the gamma-GTP ([…], time 7 day)?
Answer: Its gamma-GTP is 1 IU/L.

Question: And the ALT ([…], time 14 day)?
Answer: Its ALT is 43 IU/L.

Question: And the AST ([…], time 14 day)?
Answer: Its AST is 69 IU/L.

Question: And the CRE ([…], time 14 day)?
Answer: Its CRE is 0.2 mg/dL.

Question: And the DBIL ([…], time 14 day)?
Answer: Its DBIL is 0.014 mg/dL.

Question: And the GLC ([…], time 14 day)?
Answer: Its GLC is 192.8 mg/dL.

Question: And the IP ([…], time 14 day)?
Answer: The IP was 6.9 mg/dL.

Question: What about the K ([…], time 14 day) of the same compound?
Answer: Its K is 4.1 meq/L.

Question: And the LDH ([…], time 14 day)?
Answer: The LDH was 106.8 IU/L.

Question: What about the PL ([…], time 14 day) of the same compound?
Answer: The PL was 135.2 mg/dL.

Question: And the RALB ([…], time 14 day)?
Answer: The RALB was 2.8 g/dL.

Question: What about the TBIL ([…], time 14 day) of the same compound?
Answer: Its TBIL is 0.026 mg/dL.

Question: And the TC ([…], time 14 day)?
Answer: The TC was 57.8 mg/dL.

Question: And the TG ([…], time 14 day)?
Answer: Its TG is 78 mg/dL.

Question: What about the TP ([…], time 14 day) of the same compound?
Answer: Its TP is 6 g/dL.

Question: And the gamma-GTP ([…], time 14 day)?
Answer: The gamma-GTP was 1 IU/L.

Question: And the ALT ([…], time 28 day)?
Answer: The ALT was 47.6 IU/L.

Question: What about the AST ([…], time 28 day) of the same compound?
Answer: Its AST is 69.2 IU/L.

Question: What about the CRE ([…], time 28 day) of the same compound?
Answer: Its CRE is 0.2 mg/dL.

Question: What about the DBIL ([…], time 28 day) of the same compound?
Answer: The DBIL was 0.016 mg/dL.

Question: And the GLC ([…], time 28 day)?
Answer: Its GLC is 179 mg/dL.

Question: What about the IP ([…], time 28 day) of the same compound?
Answer: The IP was 7.6 mg/dL.

Question: What about the K ([…], time 28 day) of the same compound?
Answer: Its K is 3.8 meq/L.

Question: What about the LDH ([…], time 28 day) of the same compound?
Answer: The LDH was 110.8 IU/L.

Question: And the PL ([…], time 28 day)?
Answer: Its PL is 129.8 mg/dL.

Question: And the RALB ([…], time 28 day)?
Answer: Its RALB is 3 g/dL.

Question: And the TBIL ([…], time 28 day)?
Answer: The TBIL was 0.036 mg/dL.

Question: And the TC ([…], time 28 day)?
Answer: The TC was 55 mg/dL.

Question: What about the TG ([…], time 28 day) of the same compound?
Answer: The TG was 60.2 mg/dL.

Question: And the TP ([…], time 28 day)?
Answer: The TP was 6.5 g/dL.

Question: And the gamma-GTP ([…], time 28 day)?
Answer: Its gamma-GTP is 1.2 IU/L.
